Earlier results, collected in US20070282422A1, “Medical devices and methods for local delivery of elastin-stabilizing compounds” (Cook Incorporated, priority 2006, published 2007).

What was measured:
aortic elastin = settings: lyophilized aortic elastin strips in buffered solutions of 0.3%-0.8% tannic acid
[1] = system: elastin in ascending porcine aorta; settings: tannic concentrations of about 0.3%

## Tannic acid
Aortic elastin
  reduced the susceptibility of the elastin towards elastase: about 50%
[1]
  elastin stabilization: elastin stabilization
